Reference: patent EP2669276A1 (Université de Strasbourg, priority 2012, dated 2013)
Several values for one entry are separate records, joined by “and”; a condition that tells them apart may be missing. Identical values can stand only once. Like-named read-outs stand apart in the source and are kept apart here.

Experiments:
hNPFF2 = target: T1, hNPFF2 (Homo sapiens, UniProt Q9Y5X5); assay: Receptor binding assay with [3H]-FFRFamide on CHO cell membranes expressing SF-hNPFFR2; conditions: for Ki / inhibition at 0.5 µM / inhibition at 5 µM: [3H]-FFRF-NH2 radioligand; for Ki: read-out: Ki NPFF2
T1 construct: The cDNA encoding the full-length human NPFFR1 and human NPFFR2; expressed in transfected cells
T1 sequence (Q9Y5X5 whole entry): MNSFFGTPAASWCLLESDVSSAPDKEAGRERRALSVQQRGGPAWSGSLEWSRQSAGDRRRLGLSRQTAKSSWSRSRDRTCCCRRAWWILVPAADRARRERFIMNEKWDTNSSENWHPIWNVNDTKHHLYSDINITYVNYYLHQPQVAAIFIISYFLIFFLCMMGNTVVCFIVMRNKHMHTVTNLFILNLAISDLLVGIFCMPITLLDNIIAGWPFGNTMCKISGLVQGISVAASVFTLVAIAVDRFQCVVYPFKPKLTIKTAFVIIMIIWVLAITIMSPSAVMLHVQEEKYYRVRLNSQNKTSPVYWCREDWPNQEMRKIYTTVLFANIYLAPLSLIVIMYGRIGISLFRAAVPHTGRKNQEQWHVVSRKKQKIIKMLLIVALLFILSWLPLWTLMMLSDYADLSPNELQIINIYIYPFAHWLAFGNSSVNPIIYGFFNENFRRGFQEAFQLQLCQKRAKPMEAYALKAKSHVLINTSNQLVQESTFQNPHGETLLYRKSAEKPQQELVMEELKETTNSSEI
Excerpt: (§1) The cDNA encoding the full-length human NPFFR1 and human NPFFR2 were subcloned into the pcDNA3 expression vector (Invitrogen, Cergy Pontoise, France) using standard molecular biology methods. A sequence encoding a signal sequence and a Flag epitope was fused to the 5' coding sequence of both hNPFFR1 and hNPFFR2 cDNA according to (Guan et al., 1992) resulting in a SF-hNPFFR1 and SF-hNPFFR2 constructs. These contructs were stably transfected into CHO cells.
(§2) Membranes from CHO cells stably expressing SF-hNPFFR1 or SF-hNPFFR2 were prepared as described (Becker et al., 1999). SF-hNPFFR1 or SF-hNPFFR2 membranes (10µg) were incubated for 30 min at 25 °C in a final volume of 0.5 ml containing 50 mM HEPES pH 7.4, 1 mM CaCl2, 1 mM MgCl2, 0.1% bovine serum albumin, 10 nM and 3 nM [^3H]-FFRFamide (CEA, Paris; specific activity, 13,6 Ci/mmol) for […], respectively and the ligands to be tested. Non-specific binding was determined in presence of 1 µM neuropeptide FF for SF-hNPFFR2 and 1 µM neuropeptide VF for SF -hNPFFR1. Typical total and nonspecific binding were 1200 and 200 dpm, respectively for SF-hNPFFR1 and SF-hNPFFR2. Incubation mixtures were rapidly filtered and washed with 50 mM HEPES pH 7.4, 1 mM CaCl2, 1 mM MgCl2, on 96 wells GF/B unifilter (Perkin Elmer). Unifilter plates where then dryied for 1hr at 65°C. Bound radioactivity was determined by scintillation counting with 30 µl of scintillation cocktail (O-scint, Perkin Elmer) per well on a Topcount scintillation apparatus (Perkin Elmer).

[1] = tested on: Fentanyl-induced hyperalgesia in rats; assay: Fentanyl-induced hyperalgesia in rats (paw pressure vocalization test); type: in vivo; conditions: for fentanyl-induced hyperalgesia / development of fentanyl-induced hyperalgesia: rats, 30 min before fentanyl; for fentanyl-induced hyperalgesia: P < 0.001, Newman-Keuls test
hNPFF1 = target: T2, hNPFF1 (Homo sapiens, UniProt Q9GZQ6); assay: Receptor binding assay with [3H]-FFRFamide on CHO cell membranes expressing SF-hNPFFR1; conditions: for Ki / inhibition at 0.5 µM / inhibition at 5 µM: [3H]-FFRF-NH2 radioligand, mean of at least two experiments; for Ki: read-out: Ki NPFF1
T2 construct: The cDNA encoding the full-length human NPFFR1 and human NPFFR2; expressed in transfected cells
T2 sequence (Q9GZQ6 whole entry): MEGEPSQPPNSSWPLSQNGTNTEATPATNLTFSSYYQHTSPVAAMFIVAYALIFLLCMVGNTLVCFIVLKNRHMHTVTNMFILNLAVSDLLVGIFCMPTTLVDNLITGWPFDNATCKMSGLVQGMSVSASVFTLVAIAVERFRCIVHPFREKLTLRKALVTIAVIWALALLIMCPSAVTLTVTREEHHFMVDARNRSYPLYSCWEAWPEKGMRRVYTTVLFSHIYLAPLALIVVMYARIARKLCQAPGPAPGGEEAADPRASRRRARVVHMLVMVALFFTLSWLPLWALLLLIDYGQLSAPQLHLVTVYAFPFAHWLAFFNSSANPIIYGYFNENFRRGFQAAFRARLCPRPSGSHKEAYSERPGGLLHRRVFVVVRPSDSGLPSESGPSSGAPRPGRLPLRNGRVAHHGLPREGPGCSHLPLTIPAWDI
Excerpt: as §1, §2

hNPFFR1 [2] = target: T3, hNPFFR1 (Homo sapiens, UniProt Q9GZQ6); assay: cAMP measurement (forskolin-stimulated cAMP accumulation) in CHO cells expressing SF-hNPFFR1; type: cell-based
T3 construct: The cDNA encoding the full-length human NPFFR1 and human NPFFR2; expressed in transfected cells
T3 sequence (Q9GZQ6 whole entry): as above
Experimental: Functional coupling of SF-hNPFFR1 and SF-hNPFFR2 to adenylyl cyclase was assessed by measuring the inhibitory effects of agonist/antagonist and related compounds on forskolin-stimulated cAMP accumulation in CHO cells stably expressing both receptors as previously described (Gicquiaux et al., 2001) with minor modifications. Briefly, 80% confluent CHO cells expressing SF-hNPFFR1 or SF-hNPFFR2 were harvested and seeded in 96-well plates at an initial density of 10,000 cells per well. After 1-2 days of culture (90% confluency), cells were washed with 0.2 ml of PBS (in mM: 137 NaCl, 2.7 KCl, 0.9 CaCl2, 0.5 MgCl2, 6.5 Na2HPO4, 1.5 KH2PO4, pH 7.2), and then incubated at 37°C for 10 min with 0.2 ml assay buffer (in mM: 150 NaCl, 5 KCl, 2.5 CaCl2, 1.2 KH2PO4, 1.2 MgSO4, 25 NaHCO3, 10 HEPES, 10 mg/ml BSA, pH 7.4). […] The reaction was stopped by addition of 0.04 ml volume ice-cold 0.5 M HCl and cells were frozen (-80°C 1 hour) disrupted by sonication and suspensions were centrifuged at 2,000 × g for 15 min. The resulting supernatants were stored at -20°C until determination of cAMP by radioimmunoassay as described (Cailla et al., 1973). For antagonist evaluation, dose response curves of agonists (NPVF and NPFF for hNPFFR1 and hNPFFR2, respectively) were performed in the presence of fixed concentrations of antagonist. […]

hNPFFR1 [3] = target: T3, hNPFFR1; assay: [35S]GTPγS binding measurement on SF-hNPFFR1 membranes; type: biochemical; conditions: tested alone, up to 50 µM
Experimental: For [^35S]GTPγS binding experiments, SF-hNPFFR1 or SF-hNPFFR2 membrane proteins (5 µg) were incubated for 45 min at 30 °C in a final volume of 0.5 ml containing 20 mM HEPES pH 7.4, 100 mM NaCl, 3 mM MgCl2, 10 µM GDP, 10 µg/ml Saponin, 0.1 nM [^35S]GTPγS and ligands. Non-specific binding was determined in the presence of 10 µM GTPγS. Incubation mixtures were rapidly filtered and washed with 10 mM HEPES pH 7.4, 0,5 M NaCl, 1,5 mM MgCl2, on 96 wells GF/B unifilter (Perkin Elmer). Unifilter plates where then dryied for 1hr at 65°C. Bound radioactivity was determined by scintillation counting with 30 µl of scintillation cocktail (O-scint, Perkin Elmer) per well on a Topcount scintillation apparatus (Perkin Elmer).

[4] = tested on: Fentanyl-induced hyperalgesia followed by carrageenan injection in rats; assay: Fentanyl-induced hyperalgesia followed by carrageenan injection in rats; type: in vivo; conditions: 0.5 mg/kg s.c. 30 min before fentanyl at D0, carrageenan at D13, P < 0.001 Newman-Keuls test
[5] = mean of at least two experiments

Row | Compound | Ki (hNPFF1) | inhibition at 0.5 µM (hNPFF2; [5]) [%] | inhibition at 5 µM (hNPFF2; [5]) [%] | inhibition at 0.5 µM (hNPFF1) [%] | inhibition at 5 µM (hNPFF1) [%] | also measured
1 | O=C(N[C@@H](CCCN1CCCCC1)C(=O)NCCc1ccccc1)c1ccccc1-c1ccccc1 [Compound 26, (2S)-N-(2-phenylethyl)-2-[(2-phenylphenyl)formamido]-5-(piperidin-1-yl)pentanamide] | 60 nM and 65 nM |  |  |  |  | Ki (hNPFF2; unit µM printed with the value): > 13 µM; affinity for NPFFR2 (hNPFF2; in words): very low affinity; in vivo activity after oral administration ([1]; oral, low dose of 1 mg/kg): highly satisfactory in vivo activity; hyperalgesia induced by administration of fentanyl ([1]; rat, single 0.5 mg/kg dose, i.p.): blocks; fentanyl-induced hyperalgesia ([1]; 0.5 mg/kg subcutaneously): completely abolished; fentanyl-induced hyperalgesia ([1]; 3 mg/kg orally): completely abolished; development of fentanyl-induced hyperalgesia ([1]; orally 0.3, 1 and 3 mg/kg): dose-dependently prevented; development of fentanyl-induced hyperalgesia ([1]; subcutaneously 0.05, 0.1 and 0.5 mg/kg): dose-dependently prevented; affinity for NPFFR1 (hNPFF1; in words): good affinity; Kb (hNPFFR1 [2]; read-out: pA2 value for hNPFFR1 (converted)): 977 nM; decrease of forskolin-stimulated cAMP accumulation (hNPFFR1 [2]; tested alone, up to 50 µM): did not decrease; stimulation of the binding of [35S]GTPgS (hNPFFR1 [3]): did not stimulate; increase in inflammatory hyperalgesia induced by prior fentanyl injection [4]: completely prevented
2 | O=C(N[C@@H](CCCN1CCC(N2C(=O)Cc3ccccc32)CC1)C(=O)NCCc1ccccc1)c1ccccc1-c1ccccc1 [Compound 37, (2S)-5-[4-(2-oxo-2,3-dihydro-1H-indol-1-yl)piperidin-1-yl]-N-(2-phenylethyl)-2-[(2-phenylphenyl)formamido]pentanamide] |  | 0 | 45 | 21 ± 6 | 42 ± 3 | 
3 | CN(CCC[C@H](NC(=O)c1ccccc1-c1ccccc1)C(=O)NCCc1ccccc1)C1CCN(Cc2ccccc2)CC1 [Compound 38, (2S)-5-[(1-benzylpiperidin-4-yl)(methyl)amino]-N-(2-phenylethyl)-2-[(2-phenylphenyl)formamido]pentanamide] | 85 ± 20 nM |  |  |  |  | Ki (hNPFF2; [5]): 0.04 ± 0.023 µM
4 | O=C(N[C@@H](CCCN1CCN(C(=O)c2ccccc2)CC1)C(=O)NCCc1ccccc1)c1ccccc1-c1ccccc1 [Compound 39, (2S)-5-(4-benzoylpiperazin-1-yl)-N-(2-phenylethyl)-2-[(2-phenylphenyl)formamido]pentanamide] | 187 ± 9 nM | 0 | 17 |  |  | 
5 | O=C(N[C@@H](CCCN1CCC(Cc2ccccc2)CC1)C(=O)NCCc1ccccc1)c1ccccc1 [Compound 40, (2S)-5-(4-benzylpiperidin-1-yl)-N-(2-phenylethyl)-2-(phenylformamido)pentanamide] |  | 5 ± 3 | 19 ± 1 | 19 ± 3 | 32 ± 1 | 
6 | O=C(N[C@@H](CCCN1CCC(Cc2ccccc2)CC1)C(=O)NCCc1ccccc1)c1ccccc1Cl [Compound 41, (2S)-5-(4-benzylpiperidin-1-yl)-2-[(2-chlorophenyl)formamido]-N-(2-phenylethyl)pentanamide] |  | 0 | 41 ± 3 | 0 | 54 ± 3 | 
7 | O=C(N[C@@H](CCCN1CCC(Cc2ccccc2)CC1)C(=O)NCCc1ccccc1)c1ccc2ccccc2n1 [Compound 42, (2S)-5-(4-benzylpiperidin-1-yl)-N-(2-phenylethyl)-2-(quinolin-2-ylformamido)pentanamide] |  | 4 ± 10 | 47 | 11 ± 15 | 72 ± 11 | 
8 | O=C(N[C@@H](CCCN1CCC(Cc2ccccc2)CC1)C(=O)NCCc1ccccc1)c1cccc(Cl)c1 [Compound 43, (2S)-5-(4-benzylpiperidin-1-yl)-2-[(3-chlorophenyl)formamido]-N-(2-phenylethyl)pentanamide] | 441 ± 80 nM |  |  |  |  | Ki (hNPFF2; [5]): 0.147 ± 0.002 µM
9 | O=C(NCCc1ccccc1)[C@H](CCCN1CCC(Cc2ccccc2)CC1)NC(=O)C12CC3CC(CC(C3)C1)C2 [Compound 44, (2S)-2-(adamantan-1-ylformamido)-5-(4-benzylpiperidin-1-yl)-N-(2-phenylethyl)pentanamide] | 603 ± 139 nM |  |  |  |  | Ki (hNPFF2; [5]): 0.188 ± 0.006 µM
10 | O=C(C=C(c1ccccc1)c1ccccc1)N[C@@H](CCCN1CCC(Cc2ccccc2)CC1)C(=O)NCCc1ccccc1 [Compound 45, (2S)-5-(4-benzylpiperidin-1-yl)-2-(3,3-diphenylprop-2-enamido)-N-(2-phenylethyl)pentanamide] |  | 23 ± 25 | 25 ± 19 | 10 ± 18 | 12 ± 2 | 
11 | O=C(CCCNC(=O)c1ccccc1)N[C@@H](CCCN1CCC(Cc2ccccc2)CC1)C(=O)NCCc1ccccc1 [Compound 46, (2S)-5-(4-benzylpiperidin-1-yl)-N-(2-phenylethyl)-2-[4-(phenylformamido)butanamido]pentanamide] |  |  |  |  |  | inhibition at 0.7 µM (hNPFF2; 0.7 µM (footnote e)): 4%; inhibition at 7 µM (hNPFF2; 7 µM (footnote d)): 39%; inhibition at 0.7 µM (hNPFF1; 0.7 µM (footnote e)): 35%; inhibition at 7 µM (hNPFF1; 7 µM (footnote d)): 59%
